Assay results: publication PMC6614837 (Nucleic Acids Research, 2019)

Legend:
[1] = target: T1, RNase P holoenzyme from Thermotoga maritima (Thermotoga maritima, UniProt Q9X1H4); assay: Real-time fluorescence-based (FRET) RNase P activity assay with minihelix (Mh) substrate; type: biochemical; settings: fluorescent Mh substrate 270 nM, holoenzyme 33 nM, 10% DMSO, 37°C, 400 mM AmOAc, 100 mM MgCl2
T1 construct: made in house
T1 sequence (Q9X1H4 1-117): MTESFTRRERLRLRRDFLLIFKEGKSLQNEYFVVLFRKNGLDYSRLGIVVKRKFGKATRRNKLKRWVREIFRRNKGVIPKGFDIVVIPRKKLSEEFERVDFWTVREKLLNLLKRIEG
Method: (§1) The reconstitution of the RNase P holoenzyme was performed as described in ([40],[19]). This protocol produces a homogeneous and functional ribozyme that can be crystallized by mixing P RNA and P protein in a 1:1.1 molar ratio in 1× TH buffer (33 mM Tris–HCl, 66 mM HEPES, pH 7.4) and 400 mM ammonium acetate (AmOAc). The mixture was heated to 95°C for 2 min in a water bath, then chilled on ice for 2 min, after which MgCl2 was added to a final concentration of 100 mM. […] This higher concentration was used in all experiments described herein. The holoenzyme was further incubated at 50°C for 10 min and 37°C for 40 min. The final concentration of holoenzyme was 333 nM (35.6 μg/ml of P RNA and 4.7 μg/ml of P protein).
The minihelix (Mh) substrate (Figure 1A) was adopted from a previously characterized RNase P substrate, pMini3bpUG ([32],[33]) and coupled to either Black Hole Quencher 1 (BHQ1) or Black Hole Quencher 2 (BHQ2) at the 5′-end and Alexa Fluor 488 at the 3′-end. This probe was purchased either from Sigma-Aldrich or Integrated DNA Technologies (IDT). A requested scale of […] yielded between 6.3 and 20 nmol (57.5 to 181 μg, enough for 1300–4000 reactions depending on the experimental substrate concentration). Before use, the minihelix was diluted from a 100 μM stock (dissolved in water) to 3.6 μM in activity buffer H (33 mM Tris–HCl, 66 mM HEPES, pH 7.4, 400 mM AmOAc and 100 mM MgCl2).
(§2) Reactions were performed in a total volume of 20 μl. Pipetting was done by hand using multichannel pipettes. First, an 18 μl reaction mixture containing 16.5 μl of activity buffer (H for Mh or L supplemented with 10% PEG 200 for bipartite pre-tRNA) and 270 nM (Mh) or 135 nM (bipartite pre-tRNA) (1.5 or 0.7 μl of the 3.6 μM stock) of the fluorescent substrate probe was pre-incubated on ice for at least 5 m in a black polystyrene 384-well microtiter microplate with a flat transparent bottom (Corning ref 3540). The holoenzyme was then added at a final concentration of 33 nM (2 μl of a 333 nM stock) in 1× TH buffer and mixed. Kinetic activity was monitored in a Synergy MX Multimode Detector (BioTek) at 37°C with rapid agitation. At least 20 readings were taken per well every 15 s. The probe was excited at 485 nm, and its emission was monitored at 535 nm with an integration time of 1 s. From the plots of relative fluorescent units (RFU) versus time, linear regression was used to determine the slopes in the linear portion of the curves, using at least 12 data points to obtain initial velocities. Non-linear fitting to obtain the Michaelis–Menten parameters was performed using GraphPad Prism® 6.01 software.
Supplementary Figure 3. FRET assays of RNase P with the fluorescent substrate are reproducible. (A) Representative plots of kinetic assays performed in a single run. The standard assay (SA), (+), was performed at 37° C in a total volume of 20 µL and contained RNase P holoenzyme at 33 nM, substrate minihelix (Mh) at 270 nM, 10% DMSO and activity buffer (AB).
The negative control assay (-) contained 100 mM CaCl2 in place of MgCl2. Ten to twelve wells were monitored simultaneously in a typical assay. (B) Zoomed view of the linear region of the kinetic assays shown in panel A. Fluorescence readings were performed every 15-20 seconds.
Linear regression calculations were done using the GraphPad Prism 7 software. (C) The coefficient Z’-factor (1) was used as an indicator of reproducibility and was calculated based on the relative fluorescence units (RFU) in the plateau phase (taken at 20 minutes). The Z’-factor has a […]
presented in this work were either measured in triplicate or confirmed in subsequent assays. (D) […]
assay is robust. The IC50 values reported in Figures 1C and 2 were calculated according to this kinetic parameter. There is a negative drift in fluorescence in the case of the negative control.
However, it should be noted that the mean value of it (-279) is much smaller than the signal of the […]
positive control (3397). […]

[2] = system: 3'-biotinylated minihelix (Mh; pMini3bpUG) (RNA, hairpin) GAUCUGAAUGCGGAAACGCGCCAC; assay: biolayer interferometry; settings: Mg2+ 10 mM, NH4+ 100 mM (ammonium acetate); 20 mM HEPES pH 7.4, DMSO, 30°C; compound 15.6-500 µM
[3] = target: T1, RNase P holoenzyme from Thermotoga maritima; assay: Real-time fluorescence-based RNase P activity assay with bipartite pre-tRNA substrate; type: biochemical; settings: fluorescent bipartite pre-tRNA substrate, holoenzyme 33 nM, 10% PEG 200 in place of DMSO
Method: as §1
The bipartite pre-tRNA substrate derived from pre-tRNA^Phe from T. maritima (Supplementary Figure S13) was designed for the ease of chemical synthesis and conceived from the fact that the anticodon loop is not required for RNase P recognition (Reiter et al.). As for the Mh substrate, fluorescent bipartite pre-tRNA was coupled to Black Hole Quencher 1 (BHQ1) at the 5′-end of the 5′ oligo, and to Alexa Fluor 488 at the 3′-end of the 3′ oligo (see Supplementary Table S1). The probes were purchased from Integrated DNA Technologies (IDT). A requested scale of 250 nmol yielded 27.4 nmol (0.36 mg) for the 5′ oligo and 3.8 nmol (50 μg) for the 3′ fluorescent oligo. Before use, the probes were diluted from a 100 μM stock (dissolved in water) and assembled by mixing and heating to 3.6 μM in activity buffer L (Tris–HCl pH 7.4 33 mM, HEPES 66 mM, 100 mM AmOAc and 10 mM MgCl2).
as §2, with “software. […]” for “software.”

CN(C)c1ccc(C(=C2C=CC(=[N+](C)C)C=C2)c2ccc(N(C)C)cc2)cc1 [Gentian violet, tris(4-(dimethylamino)phenyl)methylium chloride, reference compound] gave an IC50 [1] of 7.3 ± 1.6 µM, a KD [2] of 8 µM and an IC50 [3] of 16.2 ± 2.1 µM.
